Reference: patent US9326513B2, “Fungicidal compositions” (Syngenta Participations AG, priority 2011, dated 2016)
Where “and” joins values, the source holds several entries; their conditions need not be identical. Identical values can stand only once. Like-named read-outs stand apart in the source and are kept apart here.

Columns and labels:
Septoria tritici [1] = assay: Septoria tritici (leaf blotch), PDB microtiter plate, visual after 72 hrs; format: cell-based; settings: Zymoseptoria tritici, single compound
Septoria tritici [2] = assay: Septoria tritici (leaf blotch), YBG microtiter plate, photometric growth inhibition after 6 days; format: cell-based; settings: Zymoseptoria tritici, 144 h, solo
[3] = test system: Puccinia recondita f. sp. tritici; assay: Puccinia recondita f. sp. tritici / wheat / leaf disc curative (brown rust); format: in vivo; settings: foliar, compared to untreated control leaf disks, read-out: disease control
Experimental: Puccinia recondita f. sp. tritici/Wheat/Leaf Disc Curative (Brown Rust) Wheat leaf segments cv. Kanzler are placed on agar in multiwell plates (24-well format). The leaf segments are inoculated with a spore suspension of the fungus. Plates were stored in darkness at 19° C. and 75% rh. The formulated test compound diluted in water was applied 1 day after inoculation.

Botrytis cinerea = Botrytis cinerea (gray mould), PDB microtiter plate, visual after 72 hrs; format: cell-based; settings: Botrytis cinerea; for inhibition at 0.015625 ppm: rate 0.015625 ppm; for inhibition at 0.03125 ppm: rate 0.03125 ppm; for inhibition at 0.03125 ppm / inhibition at 0.0625 ppm: read-out: Activity (%); for inhibition at 0.0625 ppm: rate 0.0625 ppm; for inhibition at 0.25 ppm: rate 0.25 ppm; for inhibition at 0.5 ppm: rate 0.5 ppm; for inhibition at 1 ppm: rate 1 ppm; for inhibition at 2 ppm: rate 2 ppm
[4] = test system: Mycosphaerella arachidis (y. Cercospora arachidicola); assay: Mycosphaerella arachidis (brown leaf spot of groundnut), PDB microtiter plate, visual after 5-6 days; format: cell-based; settings: Mycosphaerella arachidis, single compound
Sphaerotheca fuliginea = Sphaerotheca fuliginea (powdery mildew) on cucumber, preventive treatment; format: in vivo; settings: solo, 2 days preventive, 10 days after application
Description: In the following Tables 'Activity (%)' means the assessed experimental activity (% disease control in this test when compared to untreated control leaf disks under the same conditions, which show extensive disease development) and “P” is the expected value calculated (expected) activity according to the COLBY formula (see above). The column headed 'S?' indicates whether or not synergy was observed, with 'y' meaning that synergy was observed. Sphaerotheca fuliqinea (Powdery Mildew) on Cucumber, Preventive Treatment […] Cucumber plants with unfolded cotyledons were sprayed with a roomsprayer and 40 ml/4 plants spray volume with the test compounds, either solo or in […] shown in the table below. 2 days after application the plants were infested with spores of Sphaerotheca fuliginea.

[5] = test system: Blumeria graminis f. sp. tritici (Erysiphe graminis f. sp. tritici); assay: Blumeria graminis f. sp. tritici / wheat / leaf disc preventative (powdery mildew on wheat); format: in vivo; settings: foliar, compared to untreated control leaf disks, read-out: disease control
Outline: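 Preventative leaf-disc test: compound (200 ppm) was sprayed onto cv. Kanzler wheat segments, which were dusted with conidia from infected plants 1 day after application. After incubation at 20° C and 60% rh, disease control relative to untreated segments was rated 6-8 days after application.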

Septoria tritici [6] = assay: Septoria tritici on wheat, preventive treatment; format: in vivo; settings: solo, wheat Riband, 1 day preventive, 18 days after application
[7] = test system: Phakopsora pachyrhizi (triazole tolerant soybeanrust strain); assay: Phakopsora pachyrhizi on soybean, preventive treatment; format: in vivo; settings: solo, soybean leaf discs, 1 day preventive, 11 days after application
[8] = test system: Monographella nivalis (syn. Microdochium nivale, Fusarium nivale); assay: Monographella nivalis (snow mould, foot rot of cereals), PDB microtiter plate, visual after 72 hrs; format: cell-based; settings: Monographella nivalis
Sclerotinia sclerotiorum = Sclerotinia sclerotiorum on oilseed rape, preventive treatment; format: in vivo; settings: solo, 1 day preventive, 11 days after application
Description: In the following Tables ‘Activity (%)’ means the assessed experimental activity (% disease control in this test when compared to untreated control leaf disks under the same conditions, which show extensive disease development) and “P” is the expected value calculated (expected) activity according to the COLBY formula (see above). The column headed ‘S?’ indicates whether or not synergy was observed, with ‘y’ meaning that synergy was observed.
Sclerotinia sclerotiorum on Oilseed Rape, Preventive Treatment
The compound activity was tested under 1 day preventive conditions. Oilseed rape plants with 3 unfolded leafs were sprayed with a track sprayer and 200 I/ha spray volume with the test compounds, either solo or in tankmix as shown in the table below.
1 day after application the plants were infested with a solution of Sclerotinia sclerotiorum mycelium. The plants were placed under plastic hoods and high humidity conditions in a climate chamber at 14 h day/10 h night cycle and 15° C. Disease infestation was evaluated visually 11 days after application and average activity calculated in relation to disease severity on untreated check.

[9] = 0.25 ppm, read-out: Activity (%)
[10] = single compound, rate 0.125 ppm

CCN(C)/C=N/c1cc(Br)c(OC2Cc3ccccc3C2)nc1C [Q.062]
13%: Activity ([7]; rate 2 g ai/ha)
37%: inhibition of growth at 0.3125 ppm (Septoria tritici [2]; rate 0.3125 ppm)
31%: inhibition of growth at 0.0078125 ppm (Septoria tritici [2]; rate 0.0078125 ppm)
32%: inhibition of growth at 0.00390625 ppm (Septoria tritici [2]; rate 0.00390625 ppm)
29%: inhibition of growth at 0.078125 ppm (Septoria tritici [2]; rate 0.078125 ppm)
≥ 50%: pest or weed control at 200 ppm [3] | pest or weed control at 200 ppm [5]
26%: Activity (Sclerotinia sclerotiorum; rate 100 ppm)
8% and 6%: Activity (Septoria tritici [6]; 3 g a.i./ha)
39%: inhibition of growth at 0.15625 ppm (Septoria tritici [2]; rate 0.15625 ppm, read-out: Activity)
48%: inhibition of growth at 2.5 ppm (Septoria tritici [2]; rate 2.5 ppm)
61%: Activity (Septoria tritici [6]; 81 g a.i./ha)
64%: inhibition of growth at 5 ppm (Septoria tritici [2]; rate 5 ppm)
50% and 71%: Activity (Septoria tritici [6]; 27 g a.i./ha)
7%: Activity (Sphaerotheca fuliginea; rate 2 ppm)
2%: Activity (Septoria tritici [6]; 1 g a.i./ha) | Activity (Sclerotinia sclerotiorum; rate 50 ppm)
70%: inhibition at 1 ppm ([4]; 1 ppm) | inhibition at 2 ppm ([4]; 2 ppm) | inhibition at 1 ppm ([8]; single compound, rate 1 ppm)
50%: inhibition at 0.5 ppm ([8]; single compound, rate 0.5 ppm)
0%: inhibition at 0.00390625 ppm (Septoria tritici [1]; 0.00390625 ppm) | inhibition at 0.0078125 ppm (Septoria tritici [1]; 0.0078125 ppm) | inhibition at 0.015625 ppm (Septoria tritici [1]; 0.015625 ppm) | inhibition at 0.03125 ppm (Septoria tritici [1]; 0.03125 ppm) | inhibition at 0.0625 ppm (Septoria tritici [1]; 0.0625 ppm) | inhibition at 0.125 ppm (Septoria tritici [1]; 0.125 ppm) | inhibition at 0.25 ppm (Septoria tritici [1]; [9]) | inhibition at 0.5 ppm (Septoria tritici [1]; 0.5 ppm) | inhibition at 1 ppm (Septoria tritici [1]; 1 ppm) | inhibition at 2 ppm (Septoria tritici [1]; 2 ppm) | inhibition at 0.00390625 ppm (Botrytis cinerea; alone, rate 0.00390625 ppm) | inhibition at 0.0078125 ppm (Botrytis cinerea; alone, rate 0.0078125 ppm) | inhibition at 0.015625 ppm (Botrytis cinerea; alone) | inhibition at 0.03125 ppm (Botrytis cinerea; alone) | inhibition at 0.0625 ppm (Botrytis cinerea; alone) | inhibition at 0.1258 ppm (Botrytis cinerea; alone, rate 0.1258 ppm) | inhibition at 0.25 ppm (Botrytis cinerea; alone) | inhibition at 0.5 ppm (Botrytis cinerea; alone) | inhibition at 1 ppm (Botrytis cinerea; alone) | inhibition at 2 ppm (Botrytis cinerea; alone) | inhibition at 0.015625 ppm (Botrytis cinerea; single compound) | inhibition at 0.03125 ppm (Botrytis cinerea; single compound) | inhibition at 0.0625 ppm (Botrytis cinerea; single compound) | inhibition at 0.125 ppm (Botrytis cinerea; [10]) | inhibition at 0.25 ppm (Botrytis cinerea; single compound) | inhibition at 0.5 ppm (Botrytis cinerea; single compound) | inhibition at 1 ppm (Botrytis cinerea; single compound) | inhibition at 2 ppm (Botrytis cinerea; single compound) | inhibition at 0.015625 ppm ([4]; 0.015625 ppm, read-out: Activity (%)) | inhibition at 0.03125 ppm ([4]; 0.03125 ppm, read-out: Activity (%)) | inhibition at 0.0625 ppm ([4]; 0.0625 ppm, read-out: Activity (%)) | inhibition at 0.125 ppm ([4]; 0.125 ppm, read-out: Activity (%)) | inhibition at 0.25 ppm [4, 9] | inhibition at 0.5 ppm ([4]; 0.5 ppm, read-out: Activity (%)) | Activity (Sphaerotheca fuliginea; rate 0.2 ppm) | Activity (Sphaerotheca fuliginea; rate 0.6 ppm) | Activity ([7]; rate 0.5 g ai/ha) | inhibition at 0.015625 ppm ([8]; applied alone, 0.015625 ppm) | inhibition at 0.03125 ppm ([8]; applied alone, 0.03125 ppm) | inhibition at 0.0625 ppm ([8]; applied alone, 0.0625 ppm) | inhibition at 0.125 ppm ([8]; applied alone, 0.125 ppm) | inhibition at 0.015625 ppm ([8]; single compound, rate 0.015625 ppm) | inhibition at 0.03125 ppm ([8]; single compound, rate 0.03125 ppm) | inhibition at 0.0625 ppm ([8]; single compound, rate 0.0625 ppm) | inhibition at 0.125 ppm [8, 10] | Activity (Sclerotinia sclerotiorum; rate 25 ppm)
20%: inhibition at 2 ppm ([8]; applied alone, 2 ppm) | inhibition at 0.25 ppm ([8]; single compound, rate 0.25 ppm)
51%: inhibition of growth at 1.25 ppm (Septoria tritici [2]; rate 1.25 ppm)
